Assay results reported in US9011820B2, “Screening tool for antiviral agents” (Saint Louis University, priority 2007, dated 2015).
Like-named read-outs stand apart in the source and are kept apart here.

Experiments:
HaK tumors = type: in vivo, hamsters; settings: CP twice weekly
Description: In an illustrative example, a tumor experiment in hamsters immunosuppressed with cyclophosphamide (CP) was conducted. Hamsters with very large (about 1.1 ml mean) established tumors (formed by the hamster renal cancer cell line named HaK) were treated with CP on day 1, then starting on day 4 the tumors were injected with VRX-007, Ad5, or buffer. CP was administered twice weekly throughout the study. […] Established large, about 1.1 ml, subcutaneous HaK tumors were injected intratumorally (6 injections, 1×10^10 PFU each) with VRX-007, wild-type Ad5, or vehicle (saline only). For each of these treatments, one group was immunosuppressed with CP and one group remained immunocompetent. Tumor volumes were measured with digital calipers twice per week. […] The tumors are from the 42 day time point.

Ad5 [1] = experiment: HDP-CDV in Ad5-infected normal and CP-immunosuppressed Syrian hamsters; type: in vivo; settings: 2.5 mg/kg oral gavage daily for 6 days, Days 3 and 6
Description: FIGS. 12A-12D are graphical representations illustrating HDP-CDV decreasing adenovirus induced liver toxicity and viral load.
Syrian hamsters (females, average weight 98 g) were immunosuppressed with twice weekly injections of cyclophosphamide (starting on Day −6; 140 mg/kg i.p. for the first dose, then 100 mg/kg). On Day 0, the animals were injected intravenously (into the jugular vein) with 1.9×10^12 vp/kg (ca. 3×10^10 PFU/animal) of Ad5 or AdCMVpA, and half of them were treated with HDPCDV (2.5 mg/kg via oral gavage daily for 6 days, starting on Day −1). On Days 3 and 6, hamsters were sacrificed and their sera were analyzed for transaminases (panel A=ALT; panel B=AST) and bilirubin (panel C). Infectious virus titers in the liver were determined, by TCID50 assays; the dashed line in the graph marks the threshold of quantifiability, horizontal lines represent group means, n-4, except for clinical chemistry for the Ad5 CP group on Day 6 (n=2); the error bars represent standard deviation.

Ad5 [2] = experiment: HDP-CDV in Ad5-infected immunosuppressed mice; type: in vivo; settings: daily 2.5 mg/kg oral gavage
Description: Immunocompetent mice and mice immunosuppressed with CP were injected intravenously with 1.5×10^11 vp/kg of Ad5 or AdCMVpA, a replication defective adenovirus. Half of the animals in each group were treated via oral gavage with daily doses of 2.5 mg/kg of HDP-CDV, starting a day before virus injection. At the indicated times, mice were sacrificed and infectious virus titers in the liver were determined.

[3] = test system: Ad serotypes from Species A, B, C, D, E, and F in HEp-2 cells; settings: cited from earlier work
[4] = in vivo; cited from earlier work
Ad = settings: cited from earlier work
Ad5 [5] = settings: cotton rat; cited from earlier work
VRX-007 = experiment: Cidofovir inhibition of VRX-007 replication in A549 cells (crystal violet staining); type: cell-based, human adenovirus; settings: 10 or 0.1 PFU/cell, stained seven days post infection
Description: A549 cells were mock-infected or infected with 10 or 0.1 plaque-forming units (PFU)/cell of VRX-007. Concomitantly, cidofovir was added to the medium at the indicated concentrations. The cells were stained with crystal violet dye at seven days post infection. Cidofovir has shown some efficacy in the rabbit and cotton rat models of ocular models of Ad5 infection.

Ad ocular infections = settings: large multi-center trial, humans, cited from earlier work
[6] = test system: Ad serotypes 1, 2, 5, and 8; settings: cited from earlier work
Ad5 [7] = settings: rabbit; cited from earlier work
[8] = prospective study, eight pediatric stem cell transplant patients

O=P1(N(CCCl)CCCl)NCCCO1 (stereo not shown) [CP, cyclophosphamide]
total white blood cell (WBC) count (CP twice weekly): dropped to very low levels by day 12
hemoglobin level (average) (CP-treated hamsters, end of experiment (42 days), 15.95 g/dl at the start): 6.95 g/dL
red blood cells (RBC) (CP-treated hamsters, end of experiment, 8.39×10^6/mm^3 at the start): 3.96×10^6 mm^3
growth of buffer-injected tumors (HaK tumors): did not affect growth

CCCCCCCCCCCCCCCCOCCCOP(=O)(O)CO[C@H](CO)Cn1ccc(N)nc1=O [HDP-CDV, Hexadecyloxypropyl-cidofovir]
adenoviral loads (infectious virus titers in the liver, TCID50) (Ad5 [1]): effectively and significantly reduces
liver toxicity (ALT, AST, bilirubin) (Ad5 [1]): effectively and significantly reduces liver toxicity
replication of Ad5 (infectious virus titers in the liver) (Ad5 [2]): suppressing the replication

Nc1ccn(C[C@@H](CO)OCP(=O)(O)O)c(=O)n1 [cidofovir, (S)-9-[3-hydroxy-2-(phosphonomethyloxy)propyl] cytosine]
inhibition of Ad replication by species [3]: inhibited replication in HEp-2 cells of serotypes from Species A, B, D, E, and F
oral bioavailability [4]: poor oral bioavailability
toxicity of systemic use (Ad; accumulation of the drug in renal proximal tubules): nephrotoxicity
efficacy against Ad-associated hemorrhagic cystitis and renal dysfunction (Ad; bone marrow transplant patients): effective
resolution of Ad infection in case reports (Ad; disseminated Ad in pediatric liver transplant patient, Ad7 in B cell lymphoma adult patient with meningoencephalitis): seemed to resolve
efficacy against Ad (Ad; patients immunosuppressed because of stem cell and bone marrow transplants): some efficacy
dose-limiting nephrotoxicity (Ad; [8]): without dose-limiting nephrotoxicity
suppression of Ad (Ad; [8]): seemed to provide long term suppression of Ad
efficacy in ocular model of Ad5 infection (Ad5 [5]): some efficacy
inhibition of replication of VRX-007 (VRX-007): inhibits the replication
efficacy against Ad ocular infections (Ad ocular infections): Significant efficacy
efficacy/toxicity ratio (Ad ocular infections; trial discontinued): narrow efficacy/toxicity ratio
inhibition of Ad replication in cell culture [6]: potent, nontoxic inhibitor
efficacy in ocular model of Ad5 infection (Ad5 [7]): some efficacy

NC(=O)c1ncn([C@@H]2O[C@H](CO)[C@@H](O)[C@H]2O)n1 [ribavirin]
inhibition of Ad replication by species [3]: Only Species C was inhibited
